Data published in patent publication US5189033A, “Tricyclic heterocycles” (Imperial Chemical Industries PLC, priority 1991, dated 1993).
Like-named read-outs stand apart in the source and are kept apart here.

Experiments:
[1] = system: writhing induced by the intraperitoneal administration of phenylbenzoquinone; assay: Test (c): in-vivo assay in mice, writhing induced by phenylbenzoquinone (PBQ); details: at 100 mg/kg, oral dosing
From the text: (c) an in-vivo assay in mice which assesses the inhibitory properties of a test compound against writhing induced by the intraperitoneal administration of phenylbenzoquinone (hereinafter PBQ) using the procedure disclosed in European Patent Application No. 0218077.

[2] = target: T1, EP1 receptors (PGE2-induced contractions of the ileum) (Cavia porcellus, UniProt A0A286XHJ6); assay: Test (a): in-vitro guinea pig ileum assay, inhibition of PGE2-induced contractions; details: PGE2-induced contraction of guinea pig ileum, read-out: pA2 value (converted)
T1 construct: ileum was immersed in oxygenated Krebs solution containing indomethacin; from tissue; host or cells: guinea pig ileum
T1 sequence (A0A286XHJ6 1-405): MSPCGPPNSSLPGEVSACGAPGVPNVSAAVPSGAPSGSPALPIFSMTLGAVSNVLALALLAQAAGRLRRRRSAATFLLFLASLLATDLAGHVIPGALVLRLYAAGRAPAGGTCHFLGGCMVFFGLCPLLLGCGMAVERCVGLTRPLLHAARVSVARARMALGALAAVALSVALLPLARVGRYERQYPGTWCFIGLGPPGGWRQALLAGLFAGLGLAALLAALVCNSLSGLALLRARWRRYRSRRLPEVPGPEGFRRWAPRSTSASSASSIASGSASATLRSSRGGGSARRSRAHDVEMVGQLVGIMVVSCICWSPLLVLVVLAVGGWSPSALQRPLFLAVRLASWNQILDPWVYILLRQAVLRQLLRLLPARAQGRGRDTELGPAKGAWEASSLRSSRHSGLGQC
Experimental: (a) an in-vitro guinea pig ileum assay which assesses the inhibitory properties of a test compound against PGE2 -induced contractions of the ileum; ileum was immersed in oxygenated Krebs solution containing indomethacin (4 μg/ml) and atropine (1 μM) and which was maintained at 37° C.; the ileum was subject to a resting tension of 1 g; a control dose response curve for PGE2 -induced contraction of the ileum was obtained; test compound (dissolved in dimethylsulphoxide) was added to the Krebs solution and a dose response curve for the PGE2 -induced contraction of the ileum in the presence of the test compound was obtained; the pA2 value for the test compound was calculated;
Prostanoid receptors and in particular receptors for PGE2 have been tentatively characterised by Kennedy et al. (Advances in Prostaglandin, Thromboxane and Leukotriene Research, 1983, 11, 327).

[3] = system: writhing induced by the concomitant administration of PGE2 and bradykinin; assay: Test (b): in-vivo assay in mice, writhing induced by PGE2 and bradykinin; details: Mus musculus, oral dosing, read-out: ED50 for antagonism of the writhing response
PGE2 receptors = details: cited from earlier work

| Kb [2] [µM] | Structure (SMILES) | activity in Test (c) [1] | ED50 [3] [mg/kg] | block of the effect of PGE2 (PGE2 receptors; cat trachea or chick ileum) | block of the effect of PGE2 (PGE2 receptors; guinea pig ileum or dog fundus) |
| --- | --- | --- | --- | --- | --- |
| 0.0398 | O=C(O)c1cccc(CN2Cc3ccccc3Oc3ccc(Cl)cc32)c1 [Example 1, 3-(8-chloro-10,11-dihydrodibenzo[b,f]-[1,4]oxazepin-10-ylmethyl)benzoic acid] | significant activity | – | – | – |
| 0.1 | O=C(O)c1ccc(CN2Cc3ccccc3Oc3ccc(Cl)cc32)cc1 [Example 2, 4-(8-chloro-10,11-dihydrodibenzo[b,f][1,4]oxazepin-10-ylmethyl)-benzoic acid] | – | 19 | – | – |
| – | CC(=O)NNC(=O)N1Cc2ccccc2Oc2ccc(Cl)cc21 [SC-19220] | – | – | not on other tissues | blocks the effect of PGE2 |
